Assay results from patent US20240132467A1, “BENZIMIDAZOLE DERIVATIVES FOR TREATING RESPIRATORY DISEASE” (TMEM16A Limited, priority 2020, published 2024).

Target: T1, human TMEM16A (TMEM16Aabc variant) (Homo sapiens, UniProt Q5XXA6, DEL476-501)
T1 sequence (Q5XXA6 with tags, fused parts or gaps isoform Q5XXA6-5 DEL539-564): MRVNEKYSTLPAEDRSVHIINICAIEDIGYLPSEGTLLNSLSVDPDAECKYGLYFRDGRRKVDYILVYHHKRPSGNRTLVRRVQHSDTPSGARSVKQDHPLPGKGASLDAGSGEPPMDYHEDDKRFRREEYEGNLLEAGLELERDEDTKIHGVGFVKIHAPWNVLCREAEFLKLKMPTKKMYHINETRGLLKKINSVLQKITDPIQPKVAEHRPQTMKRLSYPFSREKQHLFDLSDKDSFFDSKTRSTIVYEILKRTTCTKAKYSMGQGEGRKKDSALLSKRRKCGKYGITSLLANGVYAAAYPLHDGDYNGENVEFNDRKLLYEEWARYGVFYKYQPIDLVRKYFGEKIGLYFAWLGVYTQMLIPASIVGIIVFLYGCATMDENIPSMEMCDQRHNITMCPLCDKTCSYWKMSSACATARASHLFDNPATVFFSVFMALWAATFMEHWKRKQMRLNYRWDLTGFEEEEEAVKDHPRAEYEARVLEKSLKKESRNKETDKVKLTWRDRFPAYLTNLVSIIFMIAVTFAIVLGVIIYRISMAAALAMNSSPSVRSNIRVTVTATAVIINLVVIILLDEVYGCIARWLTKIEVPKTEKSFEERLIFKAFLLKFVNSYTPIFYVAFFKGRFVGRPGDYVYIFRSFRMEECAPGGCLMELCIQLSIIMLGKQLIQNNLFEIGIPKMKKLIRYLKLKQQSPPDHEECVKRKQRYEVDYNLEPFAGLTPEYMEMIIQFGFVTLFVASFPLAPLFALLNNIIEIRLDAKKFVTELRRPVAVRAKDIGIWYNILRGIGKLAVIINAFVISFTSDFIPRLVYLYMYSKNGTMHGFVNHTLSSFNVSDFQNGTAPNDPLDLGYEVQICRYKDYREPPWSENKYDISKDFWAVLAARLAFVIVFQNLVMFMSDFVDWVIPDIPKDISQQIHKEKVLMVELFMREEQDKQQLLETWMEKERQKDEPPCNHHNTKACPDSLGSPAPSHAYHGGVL
Test: Automated whole-cell patch clamp (Qpatch) TMEM16A potentiator assay in FRT cells stably expressing human TMEM16A
Assay type: cell-based
Conditions: for activation at 3.33 µM: 3.33 μM test compound, percentage increase of baseline TMEM16A current at +70 mV, intracellular calcium at EC20, read-out: % Potentiation @ 3.33 μM Avg; for EC50: cumulative concentration response, 5 min per concentration, whole-cell patch clamp
Experimental: Automated whole-cell patch clamp assay to detect TMEM16A activity in recombinant cells Cell culture and preparation
Fisher rat thyroid (FRT) cells stably expressing human TMEM16A (TMEM16Aabc variant; Dr Luis Galietta, Insituto Giannina, Italy) were cultured in T-75 flasks in Hams F-12 media with Coon's modification (Sigma) supplemented with 10% (v/v) foetal bovine serum, penicillin-streptomycin (10,000 U/mL/10000 μg/mL), G-418 (750μg/mL), L-glutamine (2 mM) and sodium bicarbonate solution (7.5% v/v). At —90% confluence cells were harvested for experiments by detachment with a 2:1 (v/v) mixture of Detachin (BMS Biotechnology) and 0.25% (w/v) trypsin-EDTA. Cells were diluted to a density of 3.5-4.5×10^6 cells/mL with media consisting of CHO-S-SFM II (Sigma), 25 mM HEPES (Sigma) and Soy bean trypsin inhibitor (Sigma).
Whole-Cell Patch Clamp Recording
FRT-TMEM16A cells were whole-cell patch clamped using an automated planar patch clamp system (Qpatch, Sophion). Briefly, once high resistance (GOhm) seals were established between the cells and the planar recording array the patch was ruptured using suction pulses to establish the whole-cell recording configuration of the patch clamp technique. The assay employed the following solutions (all reagents Sigma):
Intracellular solution (mM): N-methyl-D-glucamine 130, CaCl2 18.2, MgCl2 1, HEPES 10, EGTA 10, BAPTA 20, Mg-ATP 2, pH 7.25, 325mOsm with sucrose.
Extracellular solution (mM): N-methyl-D-glucamine 130, CaCl2 2, MgCl2 1, HEPES 10, pH 7.3, 320 mOsm with sucrose.
The intracellular solution buffers intracellular calcium at levels required to give —20% activation of the maximal TMEM16A mediated current (EC20 for calcium ions). Cells were voltage clamped at a holding potential of -70mV and a combined voltage step (to +70 mV)/ramp (−90 my to +90 mV) was applied at 0.05 Hz. After a period of current stabilisation test compounds, solubilised in 100% (v/v) DMSO and subsequently diluted into extracellular solution, were applied to generate a cumulative concentration response curve. Each concentration of test compound was incubated for 5 minutes before addition of the next concentration. After the final concentration was tested a supramaximal concentration of either a known active positive modulator or the TMEM16A inhibitor, CaCCinhA01 (Del La Fuente et al, 2008) was added to define the upper and lower limits of the assay.
Compound activity was quantified by measuring the increase in current upon compound addition and expressing this as a percentage increase of baseline TMEM16A current level. Percentage increases in current were determined for each concentration and the data plotted as a function of concentration using either the Qpatch software or Graphpad Prism v6.05 providing the concentration which gave 50% of its maximal effect (EC50) and maximum efficacy (percentage of baseline increase).
In FIG. 1, IBL equals baseline current, km equals the peak current during test compound concentration 1 incubation period and so on.
Peak TMEM16A current at +70mV was plotted as a function of time over the assay period. Baseline current (IBL) was measured after a period of stabilisation. The increase in current for each compound addition was determined by taking the peak current during the incubation period and subtracting the current from the previous recording period and then expressing this as a percentage of the baseline current. For test compound concentration 1 in FIG. 1 this is:
For each additional concentration tested the increase in current was determined by subtracting the current from the previous incubation period and normalising the baseline value—for test concentration 2 in FIG. 1 this is:
The values for each test concentration were plotted as a cumulative function of concentration e.g. for test concentration two this would be the sum of the peak changes measured during concentration one plus concentration two.

For C[C@@H](c1ccccc1)c1nc2cc(NC(=O)CC3C4CC5CC(C4)CC3C5)ccc2[nH]1 (stereo partly shown) [Example 1.7.1, 2-(2-Adamantyl)-N[2-[(1 S)-1-phenylethyl]-1H-benzimidazol-5-yl]acetamide], the activation at 3.33 µM was 157% and the EC50 was 273 nM.

C[C@H](c1ccccc1)c1nc2cc(NC(=O)CC3C4CC5CC(C4)CC3C5)ccc2[nH]1 (stereo partly drawn) [Example 1.7.2, 2-(2-Adamantyl)-N[2-[(1R)-1-phenylethyl]-1H-benzimidazol-5-yl]acetamide] gave an activation at 3.33 µM of 143% and an EC50 of 294 nM.

CC(C)(C)OC(=O)NCc1nc2cc(NC(=O)CC34CC5CC(CC(C5)C3)C4)ccc2[nH]1 [Example 1.7.3, tert-Butyl N-[[5-[[2-(1-adamantyl)acetyl]amino]-1H-benzimidazol-2-yl]methyl]carbamate] showed an activation at 3.33 µM of 114% and an EC50 of 1120 nM.

Compound COc1ncccc1Cc1nc2cc(NC(=O)CC34CC5CC(CC(C5)C3)C4)ccc2[nH]1 [Example 1.7.4, 2-(1-Adamantyl)-N-12-[(2-methoxy-3-pyridyl)methyl]-1H-benzimidazol-5-yljacetamide] has an activation at 3.33 µM of 148% and an EC50 of 1310 nM.

With O=C(CC1C2CC3CC(C2)CC1C3)Nc1ccc2[nH]c(Cc3cccc(O)c3)nc2c1 (stereo not shown) [Example 1.8, 2-(2-Adamantyl)-N-12-[(3-hydroxyphenyl)methyl]-1H-benzimidazol-5-yljacetamide] the activation at 3.33 µM was 126% and the EC50 was 260 nM.

Work on CC(C)(C)c1nc2cc(C(=O)NCc3cc(Cl)ccc3O)ccc2[nH]1 [Example 1.9, 2-tert-Butyl-N-[(5-chloro-2-hydroxy-phenyl)methyl]-1H-benzimidazole-5-carboxamide] yielded an activation at 3.33 µM of 52.1%.

CC(C)(C)OC(=O)NCc1nc2cc(C(=O)NCC3CCCCCC3)ccc2[nH]1 [Example 1.10, tert-Butyl N-[[5-(cycloheptylmethylcarbamoyl)-1H-benzimidazol-2-yl]methyl] carbamate] gave an activation at 3.33 µM of 110% and an EC50 of 892 nM.

CC1(CNC(=O)c2ccc3[nH]c(Cc4ccccc4)nc3c2)CCCCC1 [Example 1.10.1, 2-Benzyl-N-1(1-methylcyclohexyl)methylj-1H-benzimidazole-5-carboxamide] gave an activation at 3.33 µM of 124% and an EC50 of 210 nM.

O=C(NCC1CCCCCCC1)c1ccc2[nH]c(Cc3ccccc3)nc2c1 [Example 1.10.2, 2-Benzyl-N-(cyclooctylmethyl)-1H-benzimidazole-5-carboxamide] showed an activation at 3.33 µM of 76.1% and an EC50 of 192 nM.

Work on CC(C)(C)OC(=O)NCC1(CC(=O)Nc2ccc3[nH]c(Cc4ccccc4)nc3c2)CCCCC1 [Example 2.1, tert-Butyl N-[[1-[2-[(2-benzyl-1H-benzimidazol-5-yl)amino]-2-oxo-ethyl]cyclohexyl]methyl]carbamate] yielded an activation at 3.33 µM of 215% and an EC50 of 860 nM.

Compound O=C(CC1CCC(F)(F)CC1)Nc1ccc2[nH]c(Cc3ccccc3)nc2c1 [Example 2.1.1] has an activation at 3.33 µM of 47.6% and an EC50 of 582 nM.

With COCC(NC(=O)OC(C)(C)C)c1nc2cc(NC(=O)CC3C4CC5CC(C4)CC3C5)ccc2[nH]1 (stereo not shown) [Example 2.2, tert-Butyl N-[1-[5-[[2-(2-adamantyl)acetyl]amino]-1H-benzimidazol-2-yl]-2-methoxy-ethyl]carbamate] the activation at 3.33 µM was 197% and the EC50 was 622 nM.

Work on CN(C(=O)OC(C)(C)C)[C@H](c1ccccc1)c1nc2cc(NC(=O)CC3C4CC5CC(C4)CC3C5)ccc2[nH]1 (stereo partly shown) [Example 2.2.1] yielded an activation at 3.33 µM of 97.7% and an EC50 of 907 nM.

Compound CN(C(=O)OC(C)(C)C)[C@@H](c1ccccc1)c1nc2cc(NC(=O)CC3C4CC5CC(C4)CC3C5)ccc2[nH]1 (stereo partly shown) [Example 2.2.2] has an activation at 3.33 µM of 127% and an EC50 of 948 nM.

In the case of CCN(Cc1nc2ccc(NC(=O)CC3C4CC5CC(C4)CC3C5)cc2[nH]1)C(=O)OC(C)(C)C (stereo not shown) [Example 2.2.3], the activation at 3.33 µM is reported as 155% and the EC50 is reported as 1040 nM.

With COCCN(Cc1nc2ccc(NC(=O)CC3C4CC5CC(C4)CC3C5)cc2[nH]1)C(=O)OC(C)(C)C (stereo not shown) [Example 2.2.4] the activation at 3.33 µM was 190% and the EC50 was 1080 nM.
